Results reported in US20250205349A1, “ANTI-HUMAN TROP2 ANTIBODY-CAMPTOTHECIN DRUG CONJUGATE AND MEDICAL USE THEREOF” (SYSTIMMUNE, INC., priority 2021, published 2025).
pIC50: −log10 of the molar value. Like-named read-outs stand apart in the source and are kept apart here. Starred links: 1 amine or outer side, 2 acyl side, 3 side chain; linkers in the order of their positions; H or OH if unused. Non-standard residues stand in square brackets, D forms with d. Residues, ends and D or L forms follow the SMILES beside them. *: point of attachment. Exatecan = CC[C@@]1(O)C(=O)OCc2c1cc1n(c2=O)Cc2c-1nc1cc(F)c(C)c3c1c2[C@@H](N*)CC3; X1 = O=C(O)CNC[C@@H](C(=O)*)N1C(=O)C=CC1=O; X2 = C[C@H](OCN[*:1])C(=O)[*:2]

Key:
[1] = test system: Fadu; test: In vitro efficacy of naked antibodies and Compound d3, d38, d39 and d44, MTS; assay type: cell-based; conditions: Homo sapiens, 1 uM starting concentration
Description: (§1) In a 96-well plate, cells were plated at an appropriate cell density. After 24 h, the drugs were added. After 24 h, the drugs were diluted with the test medium (1 uM starting concentration, 5-fold dilution, 9 concentrations, test medium was added in the tenth column as blank control). The diluted drugs were added to the corresponding cell wells and then shaken for 3 min with a microplate shaker (model: MX100-4A) at a shaking speed of 550 rpm/min. After shaking, the cells were incubated in a carbon dioxide incubator for […].
(§2) After 4 days, the MTS reagent was taken out, thawed at room temperature in the dark, and vortex mixed thoroughly. […] The cells were incubated for 2 h in the dark in an incubator. After the reaction, the 96-well plate was taken out for testing the OD490 nm absorption on an elisa plate, and the test data were recorded, organized, analyzed and stored.

[2] = test system: SW620; test: as above; assay type: cell-based; conditions: Homo sapiens, SW-620, 1 uM starting concentration
Description: as §1, §2

[3] = test system: N87; test: as above; assay type: cell-based; conditions: Homo sapiens, 1 uM starting concentration
Description: as §1, §2

[4] = test system: SW620 + A431; test: as above; assay type: cell-based; conditions: Homo sapiens, 1 uM starting concentration
Description: as §1, §2

[5] = test system: HCC827; test: as above; assay type: cell-based; conditions: Homo sapiens, 1 uM starting concentration
Description: as §1, §2

[6] = Percentage of monomer of ADCs by SEC-HPLC; assay type: physicochemical
Description: • Chromatography column: Biocore SEC-300 5 μm, 4.6×300 mm; • Manufacturer: NanoChrom, Product code: B213-050030-04630S; • Mobile phase: 50 mM PB+300 mM NaCl+200 mM Arg+5% IPA, pH=6.5;
• Chromatography column: ACQUITY UPLC Protein SEC 4.6×150 mm […] • Manufacturer: waters Product code: 186005225 • Mobile phase: 50 mM PB+300 mM NaCl+200 mM Arg+5% IPA, pH=6.5

[7] = Description: The mixture of an ADC and IgG-depleted plasma were formulated with the final concentration of ADC being 0.6 mg/mL. The plasma mixture was incubated in a water bath box in a 37° C. incubator. The incubation time was set to 0 days, 3 days, and 7 days. At the same time, the unincubated plasma control was set. The incubated sample was purified and extracted and then tested for the DAR to reflect the stability of the ADC in plasma.
[8] = humans; cited from earlier work
[9] = in vivo; cited from earlier work
[10] = mice; cited from earlier work
[11] = test system: Human non-small cell lung adenocarcinoma cell H1975; test: In vitro inhibitory effect of Compound 5A, MTS; assay type: cell-based
Description: (§3) The UV light of the biosafety cabinet was turned on 30 min in advance, and then the ventilation system was enabled for 3 min. The growth medium, the detection medium, D-PBS and trypsin were preheated in a 37° C. constant-temperature water bath, and then had surface disinfected with alcohol and then placed in the biosafety cabinet. The cells with a confluence rate of about 80% were placed in the biosafety cabinet, the old culture medium was removed, the cells were rinsed with D-PBS, and the D-PBS was then discarded. The cells were digested with trypsin for 2-3 min, then neutralized with the growth medium and centrifuged at 1200 rpm for 3 min, and the supernatant was removed. The cell solution was mixed with 4 mL of test medium, and 100 μL of cell solution was taken for counting (where 50 μL of cell solution was well mixed with 50 μL of Trypan Blue Stain and then counted). According to a pre-optimized cell plating density, the cells were plated in a 96-well plate at 80 ul/well. […] After 24 hours of plating, diluted antibodies were added with 20 uL per well and control was set. Only 20 μL of test medium was added to cells in column 11. Two duplicate wells were set at each concentration. The cells were then well mixed on the cell vortex shaker at 550 rpm for 3 min.
(§4) 240 μL of test medium was added to the subsequent columns 2 to 10. 60 μL of the well mixed test solution was taken from the first column and added to the second column, and the cell solution was mixed up and down with a pipette for 10 times, and then the pipette tip was discarded. The same operation was performed for other seven concentrations one by one.
(§5) After 4 days, the MTS reagent was taken out, thawed at room temperature in the dark, and vortex mixed thoroughly. In the biosafety cabinet, 20 μL of CellTiter One Solution Reagen MTS reagent was added per 100 μL cell culture volume along the side wall of each well, and the plate surface was gently tapped to well mix the MTS solution. The cells were incubated for 2 h in the dark in an incubator. After the reaction, the 96-well plate was taken out for testing the OD490 nm absorption on an elisa plate, and the test data were recorded, organized, analyzed and stored.

[12] = test system: human gastric cancer cell NCI-N87; test: In vitro inhibitory effect of Compound 5A, MTS; assay type: cell-based
Description: as §3, §4, §5

[13] = test system: human leukemia cell JJN-3; test: In vitro inhibitory effect of Compound 5A, MTS; assay type: cell-based
Description: as §3, §4, §5

[14] = test system: human multiple myeloma cell RPMI8226; test: In vitro inhibitory effect of Compound 5A, MTS; assay type: cell-based
Description: as §3, §4, §5

[15] = test system: human breast cancer cell ZR-75-1; test: In vitro inhibitory effect of Compound 5A, MTS; assay type: cell-based
Description: as §3, §4, §5

[16] = test system: human epidermal cancer cell A431; test: In vitro inhibitory effect of Compound 5A, MTS; assay type: cell-based
Description: as §3, §4, §5

[17] = test system: human plasma cell leukemia cell H929; test: In vitro inhibitory effect of Compound 5A, MTS; assay type: cell-based
Description: as §3, §4, §5

[18] = test system: human orthotopic pancreatic adenocarcinoma cell BXPC-3; test: In vitro inhibitory effect of Compound 5A, MTS; assay type: cell-based
Description: as §3, §4, §5

[19] = test system: human breast cancer cell SK-BR-3; test: In vitro inhibitory effect of Compound 5A, MTS; assay type: cell-based
Description: as §3, §4, §5

[20] = test system: human epidermal cancer cell A431 + human colon cancer cell SW620; test: In vitro inhibitory effect of Compound 5A, MTS; assay type: cell-based
Description: as §3, §4, §5

[21] = test system: human breast cancer cell MDA-MB-361; test: In vitro inhibitory effect of Compound 5A, MTS; assay type: cell-based
Description: as §3, §4, §5

[22] = test system: human non-small cell lung cancer cell HCC827; test: In vitro inhibitory effect of Compound 5A, MTS; assay type: cell-based
Description: as §3, §4, §5

[23] = biological target: T1, recombinant TROP2-His*6 antigen (Homo sapiens, UniProt P09758); test: Double-antigen sandwich ELISA, relative affinity to TROP2; assay type: binding; conditions: OD450 nm, EC50 compared
T1 construct: His*6
T1 sequence (P09758 27-323): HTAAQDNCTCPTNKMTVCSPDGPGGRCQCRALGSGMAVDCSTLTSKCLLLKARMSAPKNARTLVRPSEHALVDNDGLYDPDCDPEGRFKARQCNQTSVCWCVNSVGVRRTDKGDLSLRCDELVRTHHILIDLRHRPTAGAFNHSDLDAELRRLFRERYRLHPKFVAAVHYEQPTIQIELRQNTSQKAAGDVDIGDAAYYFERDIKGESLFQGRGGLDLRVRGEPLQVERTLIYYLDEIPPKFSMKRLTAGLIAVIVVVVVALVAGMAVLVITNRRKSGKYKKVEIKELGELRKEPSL
Description: The recombinant TROP2-His*6 antigen was coated on the plate and then blocked with 1% bovine serum albumin; hu4D3 and the corresponding ADC and TINA1 and the corresponding ADC were diluted respectively, and then serially diluted 3 folds at a starting concentration of 2000 ng/mL respectively, for a total of 11 concentrations. After the sample was incubated on the coated elisa plate for a period of time, the secondary antibody labeled by goat anti-human Fc-HRP was added for incubation. Finally, TMB color development was performed and terminated by sulfuric acid solution, and the absorption value at 450 nm was detected on an elisa plate. The results are plotted on concentration at OD450 nm.

[24] = test system: human tumor cell line (BxPC-3); test: In vitro drug efficacy of antibodies and ADCs, MTS cell viability; assay type: cell-based; conditions: BxPC-3, 5 days
Description: In the present invention, a human tumor cell line (BxPC-3) was used as an experimental model to evaluate the in vitro efficacy of ADCs. A certain number of tumor cells were inoculated into a 96-well plate, and gradient dilutions of the test antibody and the corresponding ADC were added to the cells, the cells were treated for 5 days, cell viability was detected by using MTS, and IC50 was calculated to evaluate the in vitro inhibitory effect of the test antibody and ADCs on the tumor cell line. The cells were treated for 5 days with the antibody drugs having initial concentration of 500 nM, diluted 7 folds, with a total of 8 concentration points. Finally, the cell survival was calculated as: survival rate=(experimental group-blank group)/(control group-blank group)×100%. Then, by using Graph Pad Prism, the curve was fitted and the half inhibitory concentration (IC50) was calculated.

Compound: CC[C@@]1(O)C(=O)OCc2c1cc1n(c2=O)Cc2c-1nc1cc(F)c(C)c3c1c2[C@H](NC(=O)C1(CO)CCC1)CC3 [d44]
- IC50 [1]: 0.029 nM
- IC50 [2]: 0.014 nM
- IC50 [3]: 0.197 nM
- IC50 [4]: 0.182 nM
- IC50 [5]: 0.038 nM

Compound: CC[C@@]1(O)C(=O)OCc2c1cc1n(c2=O)Cc2c-1nc1cc(F)c(C)c3c1c2[C@H](NC(=O)[C@@H](O)C1CC1)CC3 [d39]
- IC50 [1]: 0.11 nM
- IC50 [2]: < 0.005 nM
- IC50 [3]: 0.466 nM
- IC50 [4]: 0.468 nM
- IC50 [5]: 0.092 nM

Compound: DS1062a (DAR = 4)
- Aggregate % [6]: 3.431%
- Degradation % [6]: 0.108%
- Monomer % [6]: 96.461%
- DAR Incubated in plasma for 0 days ([7]; ADC 0.6 mg/mL in IgG-depleted plasma, 37° C., 0 days): 4.21
- DAR Incubated in plasma for 3 days ([7]; ADC 0.6 mg/mL in IgG-depleted plasma, 37° C., 3 days): 3.75
- DAR Incubated in plasma for 7 days ([7]; ADC 0.6 mg/mL in IgG-depleted plasma, 37° C., 7 days): 3.30
- DAR Unincubated ([7]; unincubated control): 4.13

Compound: IMMU-132
- elimination half-life [8]: about 11 h
- mean residence time [9]: about 15.4 h
- elimination half-life [10]: about 11 h

Compound: CC[C@@]1(O)C(=O)OCc2c1cc1n(c2=O)Cc2c-1nc1cc(F)c(C)c3c1c2[C@@H](NC(=O)[C@H](C)O)CC3 [d3]
- IC50 [1]: 0.531 nM
- IC50 [2]: 0.543 nM
- IC50 [3]: 1.61 nM
- IC50 [4]: 2.81 nM
- IC50 [5]: 0.778 nM

Compound: CC[C@@]1(O)C(=O)OCc2c1cc1n(c2=O)Cc2c-1nc1cc(F)c(C)c3c1c2[C@@H](NC(=O)[C@H](C)OCNC(=O)CNC(=O)[C@H](Cc1ccccc1)NC(=O)CNC(=O)CNC(=O)[C@H](CNCC(=O)O)N1C(=O)C=CC1=O)CC3 [Compound 5A] (X1-GGFG[X2]-Exatecan)
- Efficacy % ([11]; H1975): 76.78%
- pIC50 ([11]; Homo sapiens, NCI-H1975, 96 h, H1975, 4 days, MTS): 6.01
- pIC50 ([12]; Homo sapiens, 96 h, NCI-N87, 4 days, MTS): 5.99
- Efficacy % ([12]; NCI-N87): 63.93%
- pIC50 ([13]; Homo sapiens, 96 h, JJN-3, 4 days, MTS): 7.44
- Efficacy % ([13]; JJN-3): 80.59%
- pIC50 ([14]; Homo sapiens, RPMI-8226, 96 h, RPMI8226, 4 days, MTS): 6.83
- Efficacy % ([14]; RPMI8226): 93.61%
- pIC50 ([15]; Homo sapiens, 96 h, ZR-75-1, 4 days, MTS): 6.25
- Efficacy % ([15]; ZR-75-1): 54.79%
- Efficacy % ([16]; A431): 84.97%
- pIC50 ([16]; Homo sapiens, A-431, 96 h, A431, 4 days, MTS): 6.36
- Efficacy % ([17]; H929): 99.03%
- pIC50 ([17]; Homo sapiens, NCI-H929, 96 h, H929, 4 days, MTS): 7.62
- Efficacy % ([18]; BxPC-3): 64.4%
- pIC50 ([18]; Homo sapiens, 96 h, BxPC-3, 4 days, MTS): 6.49
- pIC50 ([19]; Homo sapiens, 96 h, SK-BR-3, 4 days, MTS): 6.14
- Efficacy % ([19]; SK-BR-3): 70.9%
- Efficacy % ([20]; A431 + SW620): 68.26%
- pIC50 ([20]; Homo sapiens, 96 h, A431 + SW620, 4 days, MTS): 6.22
- pIC50 ([21]; Homo sapiens, 96 h, MDA-MB-361, 4 days, MTS): 6.24
- Efficacy % ([21]; MDA-MB-361): 62.34%
- Efficacy % ([22]; HCC827): 80.57%
- pIC50 ([22]; Homo sapiens, 96 h, HCC827, 4 days, MTS): 6.18

Compound: DS1062a [reference compound]
- affinity for antigen TROP2 compared with the corresponding antibody [23]: maintains the same affinity
- plasma stability (in words) ([7]; change in DAR during incubation in plasma): poor plasma stability
- pIC50 [24]: 6.51
